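Five concentrations, 48 hours, 96-well plates. Here, GI50 denotes the concentration required for 50% inhibition of growth. The concentration for full growth arrest is given as TGI.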
Experiments:
Experiment in all cases: NCI-60 cell line screen, 48 h
[1] = system: HL-60(TB) leukemia
[2] = system: UACC-62 melanoma
[3] = system: HT29 colon
[4] = system: HCT-15 colon
[5] = system: PC-3 prostate
[6] = system: EKVX NSCLC
[7] = system: NCI/ADR-RES ovarian
[8] = system: NCI-H522 lung
[9] = system: UO-31 renal
[10] = system: LOX IMVI melanoma
[11] = system: UACC-257 melanoma
[12] = system: OVCAR-4 ovarian
[13] = system: KM12 colon
[14] = system: U251 CNS
[15] = system: NCI-H226 lung
[16] = system: SF-539 CNS
[17] = system: A549 NSCLC
[18] = system: 786-0 renal
[19] = system: COLO 205 colon
[20] = system: OVCAR-3 ovarian
[21] = system: OVCAR-5 ovarian
[22] = system: T-47D breast
[23] = system: HCC-2998 colon
[24] = system: SNB-19 CNS
[25] = system: SK-MEL-2 melanoma
[26] = system: TK-10 renal
[27] = system: MCF7 breast
[28] = system: HOP-92 NSCLC

Question: Which results are given for `CCN(CC)CCOc1ccc(/C(=C(\C)Cc2ccc(OC)cc2)c2ccc(O)cc2)cc1`?
Answer: GI50 [1]: 1410 nM; TGI [1]: 3140 nM; GI50 [2]: 1810 nM; TGI [2]: 3320 nM; GI50 [3]: 1430 nM; TGI [3]: 3670 nM; GI50 [4]: 1490 nM; TGI [4]: 3000 nM; GI50 [5]: 1540 nM; TGI [5]: 3260 nM; GI50 [6]: 2080 nM; TGI [6]: 6190 nM; GI50 [7]: 2430 nM; TGI [7]: 7740 nM; GI50 [8]: 1890 nM; TGI [8]: 3820 nM; GI50 [9]: 1450 nM; TGI [9]: 2800 nM; GI50 [10]: 1740 nM; TGI [10]: 3170 nM; GI50 [11]: 1890 nM; TGI [11]: 3810 nM; GI50 [12]: 2950 nM; TGI [12]: 9910 nM; GI50 [13]: 1800 nM; TGI [13]: 3760 nM; GI50 [14]: 1630 nM; TGI [14]: 3090 nM; GI50 [15]: 1860 nM; TGI [15]: 4260 nM; GI50 [16]: 1750 nM; TGI [16]: 3240 nM; GI50 [17]: 1830 nM; TGI [17]: 3560 nM; GI50 [18]: 1590 nM; TGI [18]: 3000 nM; GI50 [19]: 1710 nM; TGI [19]: 3420 nM; GI50 [20]: 1680 nM; TGI [20]: 3210 nM; GI50 [21]: 2360 nM; TGI [21]: 6790 nM; GI50 [22]: 1140 nM; TGI [22]: 3520 nM; GI50 [23]: 1910 nM; TGI [23]: 3460 nM; GI50 [24]: 2080 nM; TGI [24]: 4770 nM; GI50 [25]: 1940 nM; TGI [25]: 3710 nM; GI50 [26]: 1820 nM; TGI [26]: 3680 nM; GI50 [27]: 145 nM; TGI [27]: 2300 nM; GI50 [28]: 588 nM

— PubChem BioAssay (NCI)
